Assay [1] deals with S. epidermidis ATCC 35984 biofilm. Put plainly: Biofilm disruption assay (MTT) with compounds and compound loaded beads. The note with it: Staphylococcus epidermidis, ATCC35984, read-out: Concentration of compounds (mg/ml) for 50% biofilm disruption. The class given is cell-based. The protocol: S. epidermidis ATCC 35984 was grown in Brain Heart Infusion Agar (BHIA) at 37° C. for 24 h. The loop full of bacterial culture was suspended in sterile water and matched the turbidity against 0.5 McFarland Standard (approximately 1.5×10^8), 100 μl of culture suspension was added into each well of the 96 well plate and plates were incubated at 37° C. for 48 h for biofilm formation. The biofilm formed in each well was washed twice with sterile water to remove the planktonic cells. Then biofilm was treated with 100 yl of BHI broth suspended with various concentrations of DART molecules, followed by incubation of the plates at 37° C. for 24 h. Subsequently the biofilm in the wells were stained with MTT reagent and the plates were incubated at 37° C. for 2 h. The precipitate formed in the wells was dissolved in 100 μl of dimethyl sulfoxide (DMSO) and the absorbance was measured at 600 nm in multi well plate reader to determine the minimum biofilm inhibitory concentration (MBIC). The MBIC was calculated by subtracting the absorbance value of each drug treated sample from that of 48 h growth control.

For assay [2], the system named is P. acnes CCARM 9010 induced paw inflammation. The assay can be described thus: Anti-inflammatory action in vivo, rat paw edema model. Further details: species or system Sprague Dawley rats. The note with it: topical, 24 h post initiation of treatment (32 h post induction). The source says:
Host inflammation is one of the crucial clinical feature of most of the indications associated with bacterial infections. The inventors used an exemplary compound of the invention (Compound 2) to test the anti-inflammatory effects in vivo using rat paw edema model. Inflammation was induced using one of the opportunistic pathogens Propionibacterium acnes prevalent in implant associated infections. Sprague Dawley rats were used for the study and infection was induced by P. acnes CCARM 9010. An inoculum of 1×10^9 CFU/ml of the heat killed bacteria was injected to the plantar side of the right hind paw (˜2×10^7 CFU/paw) except in sham control where saline was injected. Treatments were initiated 8 h post injection by applying the test formulation of Compound 2 (30 mg) twice daily to the plantar surface of the right hind paw and gently rubbing 50 times with the index finger. Comparators Acnedap (dapsone 5% gel) and adapalene gel (Adaferin®) were applied twice daily and once daily based on clinical prescription dosage. Paw sizes were measured in millimeters using Vernier calipers at the start of the infection, 8 h post infection, and 24 h post initiation of treatment (32 h post induction of inflammation). The change in paw size, due to inflammation, was evaluated as the difference between the paw size measured at each time point and the basal paw size measured immediately before edema induction.

Converted amounts (≈) assume the structure as drawn. “And” between values parts separate entries of the source, which are not always exact repeats. Equal entries are not always repeated.

With `Cc1ncc([N+](=O)[O-])n1CCN1CCN(c2cc3c(cc2F)c(=O)c(C(=O)O)c2n3C(C)S2)CC1` (centres unmarked) [Compound 2, 6-Fluoro-1-methyl-7-(4-(2-(2-methyl-5-nitro-1H-imidazol-1-yl)ethyl)piperazin-1-yl)-4-oxo-1H,4H-[1,3]thiazeto[3,2-a]quinoline-3-carboxylic acid], the EC50 in assay [1] fell in the range of 0.5 to 1 mg/mL (≈ 995 to 1990 µM). Further, the “Inhibition of inflammation (%) at 24 h post treatment” value in assay [2] was 43% and 43.20%.

The record behind these values is patent US10570152B2, “Antibacterial therapeutics and prophylactics” (VYOME BIOSCIENCES PVT. LTD., priority 2015, dated 2020).
